This note sets out measurements from ChEMBL document CHEMBL3992518, “Peptide Macrocycle Inhibitor of Coagulation Factor XII with Subnanomolar Affinity and High Target Selectivity” (J Med Chem, 2017).

The pKi is the negative decadic logarithm of the Ki, by convention in mol/L. Higher therefore signals a small Ki.

pKi: −log10 of the molar value. *1 amine or outer side, *2 acyl side, *3 side chain or, on linkers, in order; H or OH if unused. Where a SMILES comes first, the peptide text is derived from it. Bridges are numbered along the chain shown (N, C = ends). [ ]: non-standard residue; d: D form. TATA = O=C(CC[*:1])N1CN(C(=O)CC[*:2])CN(C(=O)CC[*:3])C1; tBuAla = CC(C)(C)C[C@H](N)C(=O)O; Nva = CCC[C@H](N)C(=O)O Where only a bound is given, the exact number is not on record here.

In the test the target is T1, Coagulation factor XII (Homo sapiens, UniProt P00748).
T1 sequence (P00748 whole entry): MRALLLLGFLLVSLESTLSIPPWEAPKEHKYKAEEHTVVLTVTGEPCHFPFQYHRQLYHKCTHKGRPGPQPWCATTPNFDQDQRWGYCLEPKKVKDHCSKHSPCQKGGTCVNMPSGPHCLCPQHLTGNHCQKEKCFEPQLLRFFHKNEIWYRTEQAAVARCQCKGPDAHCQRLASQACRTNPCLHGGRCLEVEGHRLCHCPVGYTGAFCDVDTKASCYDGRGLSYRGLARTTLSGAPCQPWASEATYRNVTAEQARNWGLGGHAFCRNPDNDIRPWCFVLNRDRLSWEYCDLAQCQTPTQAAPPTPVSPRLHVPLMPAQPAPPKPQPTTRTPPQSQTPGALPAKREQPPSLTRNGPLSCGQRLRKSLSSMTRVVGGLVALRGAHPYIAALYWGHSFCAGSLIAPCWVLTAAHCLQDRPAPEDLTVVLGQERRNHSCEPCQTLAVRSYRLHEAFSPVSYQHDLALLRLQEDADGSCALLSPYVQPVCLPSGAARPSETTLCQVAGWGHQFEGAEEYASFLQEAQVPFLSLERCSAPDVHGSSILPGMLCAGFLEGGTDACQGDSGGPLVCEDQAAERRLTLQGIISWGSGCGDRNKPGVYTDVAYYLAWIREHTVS
Briefly: Inhibition of human beta factor 12a using fluorogenic substrate Boc-Gln-Gly-Arg-AMC preincubated for 10 mins followed by addition of substrate measured every min for 30 mins.
Compound `CC(C)C[C@@H]1NC(=O)[C@H](CCC(N)=O)NC(=O)[C@H](CCCNC(=N)N)NC(=O)[C@@H]2CSCCC(=O)N3CN(CN(C3)C(=O)CCSC[C@H](NC(=O)[C@@H](N)CCCNC(=N)N)C(=O)N[C@@H](C/C=C/c3ccccc3)C(=O)N[C@@H](CCCNC(=N)N)C(=O)N[C@@H](CC(C)C)C(=O)N3CCC[C@H]3C(=O)N2)C(=O)CCSC[C@@H](C(=O)N[C@@H](CCCNC(=N)N)C(=O)N[C@@H](Cc2c[nH]c3ccccc23)C(=O)O)NC(=O)[C@H](CCCNC(=N)N)NC1=O` had a pKi of 6.94.

The compound `CC(C)C[C@@H]1NC(=O)[C@H](CCC(N)=O)NC(=O)[C@H](CCCNC(=N)N)NC(=O)[C@@H]2CSCCC(=O)N3CN(CN(C3)C(=O)CCSC[C@H](NC(=O)[C@@H](N)CCCNC(=N)N)C(=O)N[C@@H](CC(C)C)C(=O)N[C@@H](CCCNC(=N)N)C(=O)N[C@@H](CC(C)C)C(=O)N3CCC[C@H]3C(=O)N2)C(=O)CCSC[C@@H](C(=O)N[C@@H](CCCNC(=N)N)C(=O)N[C@@H](Cc2c[nH]c3ccccc23)C(=O)O)NC(=O)[C@H](CCCNC(=N)N)NC1=O` (H-RCLRLPCRQLRCRW-OH; linker 2-7-12 via TATA) showed a pKi of 7.55.

In turn, `CC(C)C[C@@H]1NC(=O)[C@H](CCC(N)=O)NC(=O)[C@H](CCCNC(=N)N)NC(=O)[C@@H]2CSCCC(=O)N3CN(CN(C3)C(=O)CCSC[C@H](NC(=O)[C@@H](N)CCCNC(=N)N)C(=O)N[C@@H](Cc3ccc(O)cc3)C(=O)N[C@@H](CCCNC(=N)N)C(=O)N[C@@H](CC(C)C)C(=O)N3CCC[C@H]3C(=O)N2)C(=O)CCSC[C@@H](C(=O)N[C@@H](CCCNC(=N)N)C(=O)N[C@@H](Cc2c[nH]c3ccccc23)C(=O)O)NC(=O)[C@H](CCCNC(=N)N)NC1=O` (H-RCYRLPCRQLRCRW-OH; linker 2-7-12 via TATA) had a pKi of 7.49.

Compound `CSCC[C@@H]1NC(=O)[C@H](CCC(N)=O)NC(=O)[C@H](CCCNC(=N)N)NC(=O)[C@@H]2CSCCC(=O)N3CN(CN(C3)C(=O)CCSC[C@H](NC(=O)[C@@H](N)CCCNC(=N)N)C(=O)N[C@@H](Cc3ccccc3)C(=O)N[C@@H](CCCNC(=N)N)C(=O)N[C@@H](CC(C)C)C(=O)N3CCC[C@H]3C(=O)N2)C(=O)CCSC[C@@H](C(=O)N[C@@H](CCCNC(=N)N)C(=O)N[C@@H](Cc2c[nH]c3ccccc23)C(=O)O)NC(=O)[C@H](CCCNC(=N)N)NC1=O` (H-RCFRLPCRQMRCRW-OH; linker 2-7-12 via TATA) showed a pKi of 6.84.

On to `CC(C)C[C@@H]1NC(=O)[C@H](CCCNC(=N)N)NC(=O)[C@H](Cc2ccccc2)NC(=O)[C@@H](NC(=O)[C@@H](N)CCCNC(=N)N)CSCCC(=O)N2CN3CN(C2)C(=O)CCSC[C@H](NC(=O)[C@@H]2CCCN2C1=O)C(=O)N[C@@H](CCCNC(=N)N)C(=O)N[C@@H](CCC(N)=O)C(=O)N[C@@H](C(C)C)C(=O)N[C@@H](CCCNC(=N)N)C(=O)N[C@H](C(=O)N[C@@H](CCCNC(=N)N)C(=O)N[C@@H](Cc1c[nH]c2ccccc12)C(=O)O)CSCCC3=O` (H-RCFRLPCRQVRCRW-OH; linker 2-7-12 via TATA), for which the pKi was 6.49.

Consider `CC(C)C[C@@H]1NC(=O)[C@H](CCC(N)=O)NC(=O)[C@H](CCCNC(=N)N)NC(=O)[C@@H]2CSCCC(=O)N3CN(CN(C3)C(=O)CCSC[C@H](NC(=O)[C@@H](N)CCCNC(=N)N)C(=O)N[C@@H](Cc3ccccc3)C(=O)N[C@@H](CCCNC(=N)N)C(=O)N[C@@H](CC(C)(C)C)C(=O)N3CCC[C@H]3C(=O)N2)C(=O)CCSC[C@@H](C(=O)N[C@@H](CCCNC(=N)N)C(=O)N[C@@H](Cc2c[nH]c3ccccc23)C(=O)O)NC(=O)[C@H](CCCNC(=N)N)NC1=O` (H-RCFR[tBuAla]PCRQLRCRW-OH; linker 2-7-12 via TATA), for which the pKi was below 5.52.

The compound `CC(C)C[C@@H]1NC(=O)[C@H](CCC(N)=O)NC(=O)[C@H](CCCNC(=N)N)NC(=O)[C@@H]2CSCCC(=O)N3CN(CN(C3)C(=O)CCSC[C@@H](C(=O)N[C@@H](CCCNC(=N)N)C(=O)O)NC(=O)[C@H](CCCNC(=N)N)NC1=O)C(=O)CCSC[C@H](NC(=O)[C@H](C)N)C(=O)N[C@@H](Cc1ccccc1)C(=O)N[C@@H](CCCNC(=N)N)C(=O)N[C@@H](CC(C)C)C(=O)N1CCC[C@H]1C(=O)N2` (H-ACFRLPCRQLRCR-OH; linker 2-7-12 via TATA) gave a pKi of 7.23.

The compound `CCC[C@@H]1NC(=O)[C@H](CCCNC(=N)N)NC(=O)[C@H](Cc2ccccc2)NC(=O)[C@@H](NC(=O)[C@@H](N)CCCNC(=N)N)CSCCC(=O)N2CN3CN(C2)C(=O)CCSC[C@H](NC(=O)[C@@H]2CCCN2C1=O)C(=O)N[C@@H](CCCNC(=N)N)C(=O)N[C@@H](CCC(N)=O)C(=O)N[C@@H](CC(C)C)C(=O)N[C@@H](CCCNC(=N)N)C(=O)N[C@H](C(=O)N[C@@H](CCCNC(=N)N)C(=O)N[C@@H](Cc1c[nH]c2ccccc12)C(=O)O)CSCCC3=O` (H-RCFR[Nva]PCRQLRCRW-OH; linker 2-7-12 via TATA) showed a pKi of 6.66.

`CC(C)C[C@@H]1NC(=O)[C@H](CCC(N)=O)NC(=O)[C@H](CCCNC(=N)N)NC(=O)[C@@H]2CSCCC(=O)N3CN(CN(C3)C(=O)CCSC[C@H](NC(=O)[C@@H](N)CCCNC(=N)N)C(=O)N3CCC[C@H]3C(=O)N[C@@H](CCCNC(=N)N)C(=O)N[C@@H](CC(C)C)C(=O)N3CCC[C@H]3C(=O)N2)C(=O)CCSC[C@@H](C(=O)N[C@@H](CCCNC(=N)N)C(=O)N[C@@H](Cc2c[nH]c3ccccc23)C(=O)O)NC(=O)[C@H](CCCNC(=N)N)NC1=O` showed a pKi of 7.43.

The compound `CC(C)C[C@@H]1NC(=O)[C@H](CCCNC(=N)N)NC(=O)[C@H](Cc2ccccc2)NC(=O)[C@@H](NC(=O)[C@@H](N)CCCNC(=N)N)CSCCC(=O)N2CN3CN(C2)C(=O)CCSC[C@H](NC(=O)[C@@H]2CCCN2C1=O)C(=O)N[C@@H](CCCNC(=N)N)C(=O)N[C@@H](CCC(N)=O)C(=O)N[C@@H](CC(C)(C)C)C(=O)N[C@@H](CCCNC(=N)N)C(=O)N[C@H](C(=O)N[C@@H](CCCNC(=N)N)C(=O)N[C@@H](Cc1c[nH]c2ccccc12)C(=O)O)CSCCC3=O` showed a pKi of 7.75.

For the compound `CC(C)C[C@@H]1NC(=O)[C@H](CCC(N)=O)NC(=O)[C@H](CCCNC(=N)N)NC(=O)[C@@H]2CSCCC(=O)N3CN(CN(C3)C(=O)CCSC[C@H](NC(=O)[C@@H](N)CCCNC(=N)N)C(=O)N[C@@H](CCC3CCCCC3)C(=O)N[C@@H](CCCNC(=N)N)C(=O)N[C@@H](CC(C)C)C(=O)N3CCC[C@H]3C(=O)N2)C(=O)CCSC[C@@H](C(=O)N[C@@H](CCCNC(=N)N)C(=O)N[C@@H](Cc2c[nH]c3ccccc23)C(=O)O)NC(=O)[C@H](CCCNC(=N)N)NC1=O`, the pKi is 6.54.

Compound `CC(C)C[C@@H]1NC(=O)[C@H](CCC(N)=O)NC(=O)[C@H](CCCNC(=N)N)NC(=O)[C@@H]2CSCCC(=O)N3CN(CN(C3)C(=O)CCSC[C@H](NC(=O)[C@@H](N)CCCNC(=N)N)C(=O)N[C@@H](Cc3ccccc3)C(=O)N[C@@H](CCCNC(=N)N)C(=O)N[C@@H](CC(C)C)C(=O)N[C@@H](CC(C)C)C(=O)N2)C(=O)CCSC[C@@H](C(=O)N[C@@H](CCCNC(=N)N)C(=O)N[C@@H](Cc2c[nH]c3ccccc23)C(=O)O)NC(=O)[C@H](CCCNC(=N)N)NC1=O` (H-RCFRLLCRQLRCRW-OH; linker 2-7-12 via TATA) showed a negative-log Ki (pKi) of 7.89.

As to `CC(C)C[C@@H]1NC(=O)[C@H](CCC(N)=O)NC(=O)[C@H](CCCNC(=N)N)NC(=O)[C@@H]2CSCCC(=O)N3CN(CN(C3)C(=O)CCSC[C@H](NC(=O)[C@@H](N)CCCNC(=N)N)C(=O)N[C@@H](Cc3ccccc3)C(=O)N[C@@H](CCCNC(=N)N)C(=O)N[C@@H](CC(C)C)C(=O)N[C@@H](C(C)C)C(=O)N2)C(=O)CCSC[C@@H](C(=O)N[C@@H](CCCNC(=N)N)C(=O)N[C@@H](Cc2c[nH]c3ccccc23)C(=O)O)NC(=O)[C@H](CCCNC(=N)N)NC1=O` (H-RCFRLVCRQLRCRW-OH; linker 2-7-12 via TATA), the negative logarithm of the Ki (pKi) is 7.33.

The compound `CC(C)C[C@@H]1NC(=O)[C@H](CCC(N)=O)NC(=O)[C@H](CCCNC(=N)N)NC(=O)[C@@H]2CSCCC(=O)N3CN(CN(C3)C(=O)CCSC[C@H](NC(=O)[C@@H](N)CCCNC(=N)N)C(=O)N[C@@H](Cc3ccncc3)C(=O)N[C@@H](CCCNC(=N)N)C(=O)N[C@@H](CC(C)C)C(=O)N3CCC[C@H]3C(=O)N2)C(=O)CCSC[C@@H](C(=O)N[C@@H](CCCNC(=N)N)C(=O)N[C@@H](Cc2c[nH]c3ccccc23)C(=O)O)NC(=O)[C@H](CCCNC(=N)N)NC1=O` had a pKi of 7.24.

`CC(C)C[C@@H]1NC(=O)[C@H](CCC(N)=O)NC(=O)[C@H](CCCNC(=N)N)NC(=O)[C@@H]2CSCCC(=O)N3CN(CN(C3)C(=O)CCSC[C@H](NC(=O)[C@@H](N)CCCNC(=N)N)C(=O)N[C@@H](Cc3ccc(I)cc3)C(=O)N[C@@H](CCCNC(=N)N)C(=O)N[C@@H](CC(C)C)C(=O)N3CCC[C@H]3C(=O)N2)C(=O)CCSC[C@@H](C(=O)N[C@@H](CCCNC(=N)N)C(=O)N[C@@H](Cc2c[nH]c3ccccc23)C(=O)O)NC(=O)[C@H](CCCNC(=N)N)NC1=O` showed a pKi of 7.04.

The compound `CC[C@H](C)[C@H](N)C(=O)N[C@H]1CSCCC(=O)N2CN3CN(C2)C(=O)CCSC[C@H](NC(=O)[C@@H]2CCCN2C(=O)[C@H](CC(C)C)NC(=O)[C@H](CCCNC(=N)N)NC(=O)[C@H](Cc2ccccc2)NC1=O)C(=O)N[C@@H](CCCNC(=N)N)C(=O)N[C@@H](CCC(N)=O)C(=O)N[C@@H](CC(C)C)C(=O)N[C@@H](CCCNC(=N)N)C(=O)N[C@H](C(=O)N[C@@H](CCCNC(=N)N)C(=O)O)CSCCC3=O` (H-ICFRLPCRQLRCR-OH; linker 2-7-12 via TATA) showed a pKi of 7.08.
